Assays:
Assay in all cases: relative viability (nuclei count vs DMSO), 5 days (fraction); higher = more cells survive
COR-L 105 = tested on: COR-L 105
Method in brief: (§1)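 Lung cancer cell lines, seeded in 1536-well plates, were treated the following day by pin tool with a single drug or with five library-drug doses (not always all listed) in √10 steps on top of a fixed anchor-drug dose. Cells were fixed and nuclei stained in one step after 5 days, and nuclei were counted. Relative viability is the nuclei count for treated wells divided by that for vehicle wells, reported as medians of duplicate plates.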

COR-L23 = tested on: COR-L23
Method in brief: as §1

EPLC-272H = tested on: EPLC-272H
Method in brief: as §1

HARA = tested on: HARA
Method in brief: as §1

HCC-15 = tested on: HCC-15
Method in brief: as §1

HCC-44 = tested on: HCC-44
Method in brief: as §1

HCC-827 = tested on: HCC-827
Method in brief: as §1

LCLC-103H = tested on: LCLC-103H
Method in brief: as §1

NCI-H1395 = tested on: NCI-H1395
Method in brief: as §1

NCI-H1437 = tested on: NCI-H1437
Method in brief: as §1

NCI-H1792 = tested on: NCI-H1792
Method in brief: as §1

NCI-H1944 = tested on: NCI-H1944
Method in brief: as §1

NCI-H1975 = tested on: NCI-H1975
Method in brief: as §1

NCI-H2023 = tested on: NCI-H2023
Method in brief: as §1

NCI-H2085 = tested on: NCI-H2085
Method in brief: as §1

NCI-H2405 = tested on: NCI-H2405
Method in brief: as §1

NCI-H358 = tested on: NCI-H358
Method in brief: as §1

NCI-H661 = tested on: NCI-H661
Method in brief: as §1

NCI-H727 = tested on: NCI-H727
Method in brief: as §1

SK-LU-1 = tested on: SK-LU-1
Method in brief: as §1

UMC-11 = tested on: UMC-11
Method in brief: as §1

Molecule `O=c1[nH]c2ccccc2n1C1CCN(CCCC(c2ccc(F)cc2)c2ccc(F)cc2)CC1` [Pimozide] + CCNC(=O)c1noc(-c2cc(C(C)C)c(O)cc2O)c1-c1ccc(CN2CCOCC2)cc1 [Luminespib] (partner 0.01 µM) has a relative viability (COR-L 105; first compound 0.253 µM) of 0.885, a relative viability (COR-L 105; first compound 0.8 µM) of 0.631 and a relative viability (COR-L 105; first compound 2.53 µM) of 0.879. For the same molecule, the relative viability (COR-L 105; first compound 8 µM) was 0.687, the relative viability (COR-L23; first compound 0.08 µM) was 0.603 and the relative viability (COR-L23; first compound 0.253 µM) was 0.628. It also gave a relative viability (COR-L23; first compound 0.8 µM) of 0.594, a relative viability (COR-L23; first compound 2.53 µM) of 0.61 and a relative viability (COR-L23; first compound 8 µM) of 0.707. It also gave a relative viability (EPLC-272H; first compound 0.08 µM) of 0.622, a relative viability (EPLC-272H; first compound 0.253 µM) of 0.557 and a relative viability (EPLC-272H; first compound 0.8 µM) of 0.185. For the same molecule, the relative viability (EPLC-272H; first compound 2.53 µM) was 0.244, the relative viability (EPLC-272H; first compound 8 µM) was 0.206 and the relative viability (HARA; first compound 0.253 µM) was 0.949. The relative viability (HARA; first compound 0.8 µM) was 0.684, the relative viability (HARA; first compound 2.53 µM) was 0.568 and the relative viability (HARA; first compound 8 µM) was 0.795. For the same molecule, the relative viability (HCC-15; first compound 0.08 µM) was 0.308, the relative viability (HCC-15; first compound 0.253 µM) was 0.288 and the relative viability (HCC-15; first compound 0.8 µM) was 0.257. For the same molecule, the relative viability (HCC-15; first compound 2.53 µM) was 0.175, the relative viability (HCC-15; first compound 8 µM) was 0.308 and the relative viability (HCC-44; first compound 0.08 µM) was 1.17. The relative viability (HCC-44; first compound 0.253 µM) was 1.02, the relative viability (HCC-44; first compound 0.8 µM) was 0.953 and the relative viability (HCC-44; first compound 2.53 µM) was 0.994. For the same molecule, the relative viability (HCC-44; first compound 8 µM) was 1.01, the relative viability (HCC-827; first compound 0.253 µM) was 0.58 and the relative viability (HCC-827; first compound 0.8 µM) was 0.413. For the same molecule, the relative viability (HCC-827; first compound 2.53 µM) was 0.625, the relative viability (HCC-827; first compound 8 µM) was 0.582 and the relative viability (LCLC-103H; first compound 0.08 µM) was 0.942. For the same molecule, the relative viability (LCLC-103H; first compound 0.253 µM) was 1.01, the relative viability (LCLC-103H; first compound 0.8 µM) was 0.762 and the relative viability (LCLC-103H; first compound 2.53 µM) was 0.899. For the same molecule, the relative viability (LCLC-103H; first compound 8 µM) was 0.948, the relative viability (NCI-H1395; first compound 0.08 µM) was 0.846 and the relative viability (NCI-H1395; first compound 0.253 µM) was 0.595. The relative viability (NCI-H1395; first compound 0.8 µM) was 0.704, the relative viability (NCI-H1395; first compound 2.53 µM) was 0.927 and the relative viability (NCI-H1395; first compound 8 µM) was 0.683. The relative viability (NCI-H1437; first compound 0.08 µM) was 1.13, the relative viability (NCI-H1437; first compound 0.253 µM) was 1.09 and the relative viability (NCI-H1437; first compound 0.8 µM) was 1.12. It also gave a relative viability (NCI-H1437; first compound 2.53 µM) of 0.988, a relative viability (NCI-H1437; first compound 8 µM) of 0.922 and a relative viability (NCI-H1792; first compound 0.08 µM) of 0.525. For the same molecule, the relative viability (NCI-H1792; first compound 0.253 µM) was 0.424, the relative viability (NCI-H1792; first compound 0.8 µM) was 0.403 and the relative viability (NCI-H1792; first compound 2.53 µM) was 0.477. The relative viability (NCI-H1792; first compound 8 µM) was 0.498, the relative viability (NCI-H1944; first compound 0.08 µM) was 0.634 and the relative viability (NCI-H1944; first compound 0.253 µM) was 0.665. For the same molecule, the relative viability (NCI-H1944; first compound 0.8 µM) was 0.644, the relative viability (NCI-H1944; first compound 2.53 µM) was 0.668 and the relative viability (NCI-H1944; first compound 8 µM) was 0.719. It also gave a relative viability (NCI-H1975; first compound 0.08 µM) of 0.213, a relative viability (NCI-H1975; first compound 0.253 µM) of 0.337 and a relative viability (NCI-H1975; first compound 0.8 µM) of 0.384. It also gave a relative viability (NCI-H1975; first compound 2.53 µM) of 0.239, a relative viability (NCI-H1975; first compound 8 µM) of 0.18 and a relative viability (NCI-H2023; first compound 0.08 µM) of 0.755. The relative viability (NCI-H2023; first compound 0.253 µM) was 0.707, the relative viability (NCI-H2023; first compound 0.8 µM) was 0.709 and the relative viability (NCI-H2023; first compound 2.53 µM) was 0.507. The relative viability (NCI-H2023; first compound 8 µM) was 0.596, the relative viability (NCI-H2085; first compound 0.08 µM) was 0.515 and the relative viability (NCI-H2085; first compound 0.253 µM) was 0.485. The relative viability (NCI-H2085; first compound 0.8 µM) was 0.4, the relative viability (NCI-H2085; first compound 2.53 µM) was 0.496 and the relative viability (NCI-H2085; first compound 8 µM) was 0.322. It also gave a relative viability (NCI-H2405; first compound 0.08 µM) of 0.654, a relative viability (NCI-H2405; first compound 0.253 µM) of 0.717 and a relative viability (NCI-H2405; first compound 0.8 µM) of 0.618. It also gave a relative viability (NCI-H2405; first compound 2.53 µM) of 0.559, a relative viability (NCI-H2405; first compound 8 µM) of 0.315 and a relative viability (NCI-H358; first compound 0.08 µM) of 0.317. The relative viability (NCI-H358; first compound 0.253 µM) was 0.382, the relative viability (NCI-H358; first compound 0.8 µM) was 0.333 and the relative viability (NCI-H358; first compound 2.53 µM) was 0.399. For the same molecule, the relative viability (NCI-H358; first compound 8 µM) was 0.206, the relative viability (NCI-H661; first compound 0.08 µM) was 0.929 and the relative viability (NCI-H661; first compound 0.253 µM) was 0.879. The relative viability (NCI-H661; first compound 0.8 µM) was 0.887, the relative viability (NCI-H661; first compound 2.53 µM) was 0.878 and the relative viability (NCI-H661; first compound 8 µM) was 0.896. It also gave a relative viability (NCI-H727; first compound 0.08 µM) of 0.321, a relative viability (NCI-H727; first compound 0.253 µM) of 0.3 and a relative viability (NCI-H727; first compound 0.8 µM) of 0.297. For the same molecule, the relative viability (NCI-H727; first compound 2.53 µM) was 0.593, the relative viability (NCI-H727; first compound 8 µM) was 0.25 and the relative viability (SK-LU-1; first compound 0.08 µM) was 0.219. For the same molecule, the relative viability (SK-LU-1; first compound 0.253 µM) was 0.197, the relative viability (SK-LU-1; first compound 0.8 µM) was 0.206 and the relative viability (SK-LU-1; first compound 2.53 µM) was 0.183. The relative viability (SK-LU-1; first compound 8 µM) was 0.206, the relative viability (UMC-11; first compound 0.08 µM) was 1.2 and the relative viability (UMC-11; first compound 0.253 µM) was 1.03. The relative viability (UMC-11; first compound 0.8 µM) was 0.976, the relative viability (UMC-11; first compound 2.53 µM) was 1.11 and the relative viability (UMC-11; first compound 8 µM) was 1.18.

From the supplement of paper PMC10307832
